Data as given in US7053178B2, “Synthetic peptides and kits for diagnosis of anti-phospholipid syndrome” (Yeda Research Development Co., LTD, priority 1998, dated 2006).
Where no end group is shown, it is not given here.

Columns and labels:
anti-β2GPI ILA-3 mAb = assay: Cyto-ELISA: inhibition of ILA-3 mAb binding to HUVEC; parameters: species or system human; conditions: peptide concentration of 10 μM
Method: FIGS. 2A–2C are graphs showing inhibition of the anti-β2GPI ILA-1, ILA-3 and G-3 mAbs binding to human umbilical vein endothelial cells (HUVEC) by competition assays using increasing concentrations of the inhibitory monomer peptides A, B and C, respectively, and of unrelated peptide D as control. The percent of inhibition was calculated as in FIG. 1 above. Each point represents mean±SD of three different experiments.
(f) Anti-β2GPI mAb binding to endothelial cells in the presence of the inhibitory peptides. Human umbilical vein endothelial cells (HUVEC) were isolated as previously described and cultured under standard conditions (Jaffe et al., 1973). Briefly, umbilical cords were treated with collagenase (0.2% from Clostridium histolyticum, Boehringer) for 20 min at 37° C., cells were cultured in medium 199 with 20% FCS, 10 μg/ml growth supplement, 100 μg/ml heparin and antibiotics (streptomycin, penicillin), and used at passages 1–2 for plating onto gelatin-coated 96-well plates. Cyto-ELISA was performed as detailed before (Jaffe et al., 1973). Briefly, mAbs at different concentrations were added to HUVEC confluent wells, previously coated with 10 μg/ml β2GPI for 2 hours and fixed with 0.1% glutaraldehyde. The bound mAb was detected by further 1-hour incubation with alkaline phosphatase-conjugated goat anti-human IgM. […]

[1] = system: experimental APS induced by anti-β2GPI mAb ILA-3; assay: Murine experimental APS induced by ILA-3 mAb; assay type: in vivo, BALB/c mice; conditions: mice infused with ILA-3 mAb, peptide 40 μg/mouse daily 3 days, day 15
Method: (i) Mice: Female BALB/c mice, aged 10–12 weeks, were purchased from Tel-Aviv University Animal House, Israel. The females were caged overnight with BALB/c males and examined for vaginal plug next morning. The presence of the plug was considered as day 0 of pregnancy in all the studied groups. (j) Induction of murine experimental APS. Mice were infused intravenously with 20 μg of each one of the anti-β2GPI ILA-1, ILA-3, and G-3 mAbs at day 0 (the day at which a vaginal plug was observed following mating) (Blank et al., 1991), 6 hours later the mice received daily 40 μg/mouse of the tested peptides during 3 days. The mice were bled and sacrificed on day 15 of pregnancy. Fetal resorptions, activated partial thromboplastin time and platelet counts (markers of the APS-equivalent in mice) were determined as described (Blank et al., 1991). Significant fetal loss, thrombocytopenia and prolonged activated thromboplastin time (aPTT) were induced in naive mice following passive intravenous administration of the three anti-β2GPI mAbs ILA-1, ILA-3 and G-3, as described in Materials and Methods, section (j). The clinical manifestations of the experimental APS were prevented by infusion of the specific peptide monomers A, B, C which were delivered to the mice with the corresponding pathogenic anti-β2GPI mAbs, as shown in Table 2. […] Similarly, mice which were preinfused with control IgM and received a cocktail of the peptide monomers (A+B+C), were not affected.

anti-β2GPI ILA-1 mAb = assay: U937 monocyte adhesion to HUVEC exposed to ILA-1 mAb; assay type: cell-based, human; conditions: ILA-1 mAb preincubated with peptide, 10 μM peptide
Method: FIGS. 3A–3C are graphs showing inhibition of U937 monocyte cell adhesion to HUVEC upon exposure to anti-β2GPI ILA-1, ILA-3 and G-3 mAbs and increasing concentrations of the inhibitory monomer peptides A, B and C, respectively, and of unrelated peptide D as control. The percentage of inhibition of adhesion was calculated as follows: % inhibition of adhesion=CPM in the presence of anti-β2GPI mAb−CPM in the presence of anti-β2GPI mAb and the tested peptide/CPM in the presence of anti-β2GPI mAb×100 (CPM=counts/min). Each point represents mean±SD of three different experiments.
(g) Adherence of U937 monocyte cells to endothelial cells in the presence of anti-β2GPI mAbs and the inhibitory peptides. This assay was performed as previously described (Carvalho et al., 1996). Briefly, U937 cells (a monocyte/macrophage-like cell line) were pretreated with heat-aggregated gamma-globulin for 30 min at 37° C. […] Radioactivity associated with adherence was quantified by beta-scintillation spectroscopy. The results were expressed as percent of added U937 cells that adhered and are presented as the mean±SD from 3–5 replicate wells.
The adhesion of monocytes to endothelial cells (EC) is considered a marker of EC activation. The percentage of adhesion is expressed as the portion of added U937 monocyte cells adhering to the HUVEC (thus reflecting the percentage of HUVEC coverage by the monocytes). […]

KDKATFGTHDG [Peptide B] was tested. Which “inhibition of ILA-3 mAb binding to HUVEC” value (anti-β2GPI ILA-3 mAb) did it give?
Its value is 72%.

And the “% Fetal loss (Resorbed fetuses/Total fetuses)” value [1]?
The value was 6 ± 2%.

What about the Platelet count [1] of the same sequence?
Its Platelet count is 1137 cells/mm^3 × 10^−3.

What about the “aPTT (activated partial thromboplastin time)” value [1] of the same sequence?
The value was 27 ± 2 s.

And the “aPTT (activated partial thromboplastin time)” value ([1]; listed as peptide B)?
The value was 27 ± 2 s.

With NTLKTPRVGG [Peptide A] as the sequence, how does the “inhibition of adhesion of U937 to HUVEC” value (anti-β2GPI ILA-1 mAb) read?
Its value is 84%.
